Test results reported in ChEMBL document CHEMBL1201862, “PubChem BioAssay data set” (2004).
Active and inactive are the calls of the source.

Experiments:
[1] = molecular target: Beta-galactosidase (Escherichia coli, UniProt Q8VNN2); type: functional
[2] = molecular target: Paired box protein Pax-8 (Homo sapiens, UniProt Q06710); assay: inhibitors of PAX8-driven TPO luciferase reporter, dose response, RMG-I cells, cherry-pick (AID 687027); type: functional, cell-based;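 note: luciferase reporter driven by Pax8 target thyroperoxidase promoter measured by SteadyGlo luminescence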
[3] = molecular target: T1, Delta-type opioid receptor (Homo sapiens, UniProt P41143); assay: HTS Image-Based Screen for Agonists of the DOR Receptor. [Related pubchem assays (depositor defined):AID1777, AID1786, AID2133]; type: functional
[4] = molecular target: T2, Mu-type opioid receptor (Homo sapiens, UniProt P35372); assay: HTS Image-Based Screen for Agonists of the MOR Receptor. [Related pubchem assays (depositor defined):AID1777, AID1785, AID1786, AID2133]; type: functional
[5] = molecular target: T3, Kappa-type opioid receptor (Homo sapiens, UniProt P41145); type: functional
[6] = molecular target: T4, Ubiquitin-conjugating enzyme E2 N (Homo sapiens, UniProt P61088); type: functional;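 note: Dose-response confirmation in a TR-FRET assay detecting UBC13-driven polyubiquitin chain formation, inhibition measured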
T4 sequence (P61088 whole entry): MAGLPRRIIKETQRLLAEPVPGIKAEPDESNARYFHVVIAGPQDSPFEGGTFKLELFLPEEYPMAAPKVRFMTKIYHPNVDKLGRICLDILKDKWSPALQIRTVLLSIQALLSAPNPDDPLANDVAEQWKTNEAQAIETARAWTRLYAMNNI

[7] = molecular target: T3, Kappa-type opioid receptor; type: functional; remark: listed apart in the source
[8] = molecular target: T1, Delta-type opioid receptor; assay: HTS Image-Based Screen for Antagonists of the DOR Receptor. [Related pubchem assays (depositor defined):AID1777, AID1785, AID1786, AID2133]; type: functional
[9] = molecular target: T5, G-protein coupled receptor 35 (Homo sapiens, UniProt Q9HC97); assay: GPR35 antagonists blocking zaprinast-driven arrestin recruitment, primary screen, imaging, U2OS, beta-arrestin-GFP, zaprinast agonist (AID 2058); type: functional;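 note: antagonist potency meaning inhibition of agonist-induced arrestin redistribution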
[10] = molecular target: G-protein coupled receptor 55 (Homo sapiens, UniProt Q9Y2T6); assay: GPR55 antagonists, SAR follow-up, counter-screen for GPR35 antagonist project, imaging, image-based (AID 2397); type: functional
[11] = molecular target: T5, G-protein coupled receptor 35; assay: SAR Analysis for the identification of Selective Antagonists of ERK1/2 Activity in GPR35-Overexpressing U2OS Cells. [Related pubchem assays: 2079, 2058 ]; type: functional, cell-based
[12] = molecular target: T6, Tyrosine-protein phosphatase non-receptor type 7 (Homo sapiens, UniProt P35236); type: functional
T6 sequence (P35236 whole entry): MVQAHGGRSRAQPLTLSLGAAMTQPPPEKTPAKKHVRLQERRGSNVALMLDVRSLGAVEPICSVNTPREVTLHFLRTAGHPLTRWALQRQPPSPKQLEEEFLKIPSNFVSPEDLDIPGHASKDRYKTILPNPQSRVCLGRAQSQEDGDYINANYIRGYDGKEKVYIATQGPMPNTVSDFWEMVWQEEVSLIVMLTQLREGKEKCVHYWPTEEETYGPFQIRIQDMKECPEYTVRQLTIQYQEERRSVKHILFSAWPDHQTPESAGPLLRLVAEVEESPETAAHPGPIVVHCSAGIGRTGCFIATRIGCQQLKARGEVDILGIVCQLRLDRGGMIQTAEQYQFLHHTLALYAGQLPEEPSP

[13] = molecular target: T7, Tyrosine-protein phosphatase non-receptor type 22 (Homo sapiens, UniProt Q9Y2R2); type: functional
[14] = molecular target: T7, Tyrosine-protein phosphatase non-receptor type 22; type: functional; remark: listed apart in the source
[15] = molecular target: Lysine-specific demethylase 4A (Homo sapiens, UniProt O75164); assay: JMJD2A histone demethylase inhibitors, dose response, selectivity assay for GASC-1 inhibitor project, biochemical, DELFIA europium, cherry-picked samples (AID 488840)
[16] = cytotoxicity toward NIH3T3 fibroblasts, dose response, counter-screen, cell-based, ATP luminescence, mouse fibroblasts (AID 2010); type: functional;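 note: cells exposed to compound for about 90 hours before reading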
[17] = system: HEK293; assay: NOD2 signaling inhibitors in MDP-stimulated cells, cell-based, uHTS, luminescence (AID 2001); type: functional; settings: Homo sapiens
[18] = system: HEK293; assay: NOD1 signaling inhibitors, primary screen, cell-based, luminescence, uHTS (AID 1578); type: functional; settings: Homo sapiens
[19] = system: HEK293; assay: cells; type: functional, cell-based; settings: Homo sapiens
[20] = molecular target: Nucleotide-binding oligomerization domain-containing protein 1 (Homo sapiens, UniProt Q9Y239); assay: NOD1 signaling inhibitors, SAR follow-up, revised (AID 2333); type: functional
[21] = system: HEK293; assay: cells; type: functional, cell-based; settings: Homo sapiens; remark: listed apart in the source
[22] = system: HEK293; assay: cells; settings: Homo sapiens
[23] = molecular target: Tumor necrosis factor (Homo sapiens, UniProt P01375); assay: TNFa-triggered NF-kB activation inhibitors, SAR follow-up, cell-based, revised (AID 2337); type: functional
[24] = inhibitors of intracellular T. cruzi replication, confirmation, NIH3T3 host cells, beta-gal luminescence (AID 2044); type: functional, cell-based;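 note: intracellular parasites grown in NIH/3T3 mouse fibroblasts as host cells; luminescent beta-galactosidase reporter signal from transgenic T. cruzi replicating inside host cells; inhibitors lower the luminescence signal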
[25] = molecular target: Nucleotide-binding oligomerization domain-containing protein 2 (Homo sapiens, UniProt Q9HC29); assay: PubChem AID 2334; type: functional
[26] = molecular target: T8, COUP transcription factor 2 (Homo sapiens, UniProt P24468); assay: Luminescence-based cell-based high throughput dose response assay to identify inhibitors of COUP-TFII (NR2F2).; type: functional;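 note: HEK293 cells transiently cotransfected with COUP-TFII expression vector and reporter; luciferase reporter luminescence driven by COUP-TFII from the pX2-168 reporter plasmid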
T8 sequence (P24468 whole entry): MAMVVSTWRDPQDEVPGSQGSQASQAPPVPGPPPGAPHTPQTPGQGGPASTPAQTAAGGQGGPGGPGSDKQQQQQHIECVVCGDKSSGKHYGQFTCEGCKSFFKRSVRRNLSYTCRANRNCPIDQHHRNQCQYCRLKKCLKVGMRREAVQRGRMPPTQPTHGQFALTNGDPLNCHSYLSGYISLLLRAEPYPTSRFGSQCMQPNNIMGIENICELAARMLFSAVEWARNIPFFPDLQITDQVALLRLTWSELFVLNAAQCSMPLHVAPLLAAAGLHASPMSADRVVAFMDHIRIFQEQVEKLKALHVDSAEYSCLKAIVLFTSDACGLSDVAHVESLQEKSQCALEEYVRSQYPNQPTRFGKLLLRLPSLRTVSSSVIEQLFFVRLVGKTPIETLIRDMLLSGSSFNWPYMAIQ

[27] = molecular target: Signal transducer and activator of transcription 3 (Homo sapiens, UniProt P40763); assay: STAT3 inhibitors, late-stage profile, late-stage follow-up, cell-based, STAT1 panel, qPCR, cytotoxicity, panel member STAT3 Inhibition (AID 2078)
[28] = molecular target: Signal transducer and activator of transcription 1-alpha/beta (Homo sapiens, UniProt P42224); assay: STAT3 inhibitors, late-stage profile, late-stage follow-up, cell-based, STAT1 panel, qPCR, cytotoxicity, panel member STAT1 Inhibition (AID 2078)
[29] = molecular target: T3, Kappa-type opioid receptor; assay: KOR agonist analogs, arrestin-GFP redistribution, SAR follow-up, imaging, image-based, set 3 (AID 488833); type: functional
[30] = molecular target: T1, Delta-type opioid receptor; assay: SAR Analysis of Agonists of the DOR Receptor using an Image-Based Assay - Set 3. [Related pubchem assays (depositor defined):AID1777, AID1786]; type: functional
[31] = molecular target: T3, Kappa-type opioid receptor; assay: SAR analysis of small molecule agonists of the kappa opioid receptor via a luminescent beta-arrestin assay - Set 3. [Related pubchem assays (depositor defined):AID1777, AID1785, AID1786, AID1966, AID2133, AID2136, AID2284, AID2500]; type: functional
[32] = molecular target: T2, Mu-type opioid receptor; assay: SAR Analysis of Agonists of the MOR Receptor using an Image-Based Assay - Set 3. [Related pubchem assays (depositor defined):AID1777, AID1785, AID1786, AID1966, AID2133, AID2136, AID2284, AID2285, AID2352]; type: functional
[33] = molecular target: Heat shock protein HSP 90-alpha (Homo sapiens, UniProt P07900); type: functional, organism-based
[34] = system: Streptococcus sp. 'group A'; assay: growth inhibition of control SK(-) GAS strain, dose response, counter-screen for streptokinase expression inhibitor project, luminescence, kanamycin, BacTiterGlo, confirmation (AID 1900); type: functional, organism-based
[35] = molecular target: T9, Streptokinase A (Streptococcus pyogenes serotype M1, UniProt P10520); assay: S. pyogenes streptokinase expression inhibitors, potency, dose response, plasminogen activation absorbance, OD405 (AID 1914); type: functional, Streptococcus pyogenes M1 GAS;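 note: secreted streptokinase activity via plasminogen activation per viability signal from cell pellet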
T9 sequence (P10520 whole entry): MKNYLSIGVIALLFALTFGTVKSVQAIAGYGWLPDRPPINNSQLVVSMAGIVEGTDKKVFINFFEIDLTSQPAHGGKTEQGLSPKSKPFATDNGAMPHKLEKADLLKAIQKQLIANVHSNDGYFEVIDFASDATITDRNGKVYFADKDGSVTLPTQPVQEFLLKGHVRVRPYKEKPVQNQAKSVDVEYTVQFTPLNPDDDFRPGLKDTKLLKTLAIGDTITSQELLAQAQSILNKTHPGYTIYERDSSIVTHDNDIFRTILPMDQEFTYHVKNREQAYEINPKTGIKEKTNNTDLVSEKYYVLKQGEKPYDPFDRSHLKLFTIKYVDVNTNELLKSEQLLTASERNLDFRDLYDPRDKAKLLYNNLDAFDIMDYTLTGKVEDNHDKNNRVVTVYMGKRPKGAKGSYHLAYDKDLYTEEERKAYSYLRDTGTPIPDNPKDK

[36] = decrease of PhoP-driven GFP reporter signal, S. Typhimurium, dose response, PhoP regulon inhibitor project, purified and synthesized compounds, set 2 (AID 2831); type: functional
[37] = system: Streptococcus; assay: Group A Streptococcus viability loss, dose response, counter-screen for streptokinase expression inhibitor project, luminescence, BacTiterGlo (AID 1915); type: functional, organism-based;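 note: potency for reduction of bacterial viability or growth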

T1 sequence (P41143 whole entry): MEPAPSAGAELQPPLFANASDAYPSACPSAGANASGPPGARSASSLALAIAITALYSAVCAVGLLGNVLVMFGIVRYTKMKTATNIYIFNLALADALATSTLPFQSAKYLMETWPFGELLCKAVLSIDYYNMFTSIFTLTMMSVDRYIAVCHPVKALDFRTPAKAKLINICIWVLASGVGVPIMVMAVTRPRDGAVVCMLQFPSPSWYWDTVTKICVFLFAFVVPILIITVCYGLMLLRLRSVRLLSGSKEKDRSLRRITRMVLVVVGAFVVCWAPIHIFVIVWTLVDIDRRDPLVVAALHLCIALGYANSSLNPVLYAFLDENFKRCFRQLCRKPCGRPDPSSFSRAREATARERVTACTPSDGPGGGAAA
T3 sequence (P41145 whole entry): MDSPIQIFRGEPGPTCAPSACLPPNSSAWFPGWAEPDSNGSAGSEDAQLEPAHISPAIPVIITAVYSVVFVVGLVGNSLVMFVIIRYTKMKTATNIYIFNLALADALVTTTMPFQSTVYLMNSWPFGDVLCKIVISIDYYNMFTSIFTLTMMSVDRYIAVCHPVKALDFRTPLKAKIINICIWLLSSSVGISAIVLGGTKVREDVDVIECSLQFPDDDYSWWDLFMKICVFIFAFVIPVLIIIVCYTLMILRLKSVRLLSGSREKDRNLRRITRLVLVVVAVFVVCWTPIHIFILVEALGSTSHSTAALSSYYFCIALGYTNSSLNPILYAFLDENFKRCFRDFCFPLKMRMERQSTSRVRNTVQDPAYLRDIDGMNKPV
T2 sequence (P35372 whole entry): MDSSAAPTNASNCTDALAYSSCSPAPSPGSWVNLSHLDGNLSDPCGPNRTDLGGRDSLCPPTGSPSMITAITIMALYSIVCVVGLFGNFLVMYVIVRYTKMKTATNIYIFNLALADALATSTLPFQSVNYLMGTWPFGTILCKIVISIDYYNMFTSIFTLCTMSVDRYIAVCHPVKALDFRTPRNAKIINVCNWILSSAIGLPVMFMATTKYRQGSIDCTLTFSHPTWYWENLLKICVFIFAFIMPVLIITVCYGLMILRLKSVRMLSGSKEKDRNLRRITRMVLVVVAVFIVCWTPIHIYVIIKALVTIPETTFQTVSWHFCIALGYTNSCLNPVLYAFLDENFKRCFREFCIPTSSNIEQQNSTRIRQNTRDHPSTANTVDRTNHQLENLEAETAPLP
T7 sequence (Q9Y2R2 whole entry): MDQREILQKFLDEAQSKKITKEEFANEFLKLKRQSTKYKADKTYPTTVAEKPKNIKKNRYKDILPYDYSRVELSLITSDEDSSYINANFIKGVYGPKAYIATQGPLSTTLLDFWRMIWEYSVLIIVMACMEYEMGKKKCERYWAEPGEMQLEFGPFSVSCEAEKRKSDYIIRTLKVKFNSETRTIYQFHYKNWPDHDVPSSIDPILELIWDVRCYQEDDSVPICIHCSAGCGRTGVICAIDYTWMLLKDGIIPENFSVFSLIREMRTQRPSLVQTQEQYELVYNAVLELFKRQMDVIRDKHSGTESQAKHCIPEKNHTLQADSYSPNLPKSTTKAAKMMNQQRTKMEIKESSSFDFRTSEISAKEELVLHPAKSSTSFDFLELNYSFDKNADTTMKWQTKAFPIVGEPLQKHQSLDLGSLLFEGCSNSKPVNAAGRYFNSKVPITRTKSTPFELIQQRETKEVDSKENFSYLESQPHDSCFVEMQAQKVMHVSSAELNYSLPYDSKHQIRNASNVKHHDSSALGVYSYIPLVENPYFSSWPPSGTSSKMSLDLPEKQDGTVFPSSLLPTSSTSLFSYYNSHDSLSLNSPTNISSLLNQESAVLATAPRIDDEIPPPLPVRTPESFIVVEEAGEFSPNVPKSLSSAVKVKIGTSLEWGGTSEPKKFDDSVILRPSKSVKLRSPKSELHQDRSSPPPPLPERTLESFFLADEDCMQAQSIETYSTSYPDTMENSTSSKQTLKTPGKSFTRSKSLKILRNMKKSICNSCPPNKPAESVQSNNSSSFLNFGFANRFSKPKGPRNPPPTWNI
T5 sequence (Q9HC97 whole entry): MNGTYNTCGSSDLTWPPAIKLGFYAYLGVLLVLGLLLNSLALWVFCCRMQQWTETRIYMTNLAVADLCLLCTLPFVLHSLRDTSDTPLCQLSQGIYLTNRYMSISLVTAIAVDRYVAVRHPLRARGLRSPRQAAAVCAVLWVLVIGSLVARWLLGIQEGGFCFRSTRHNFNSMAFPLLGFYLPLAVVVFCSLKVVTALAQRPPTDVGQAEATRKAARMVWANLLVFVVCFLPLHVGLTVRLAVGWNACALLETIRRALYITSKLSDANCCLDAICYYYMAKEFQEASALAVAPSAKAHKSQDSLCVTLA
Chain of Signal transducer and activator of transcription 3 (P40763 whole entry): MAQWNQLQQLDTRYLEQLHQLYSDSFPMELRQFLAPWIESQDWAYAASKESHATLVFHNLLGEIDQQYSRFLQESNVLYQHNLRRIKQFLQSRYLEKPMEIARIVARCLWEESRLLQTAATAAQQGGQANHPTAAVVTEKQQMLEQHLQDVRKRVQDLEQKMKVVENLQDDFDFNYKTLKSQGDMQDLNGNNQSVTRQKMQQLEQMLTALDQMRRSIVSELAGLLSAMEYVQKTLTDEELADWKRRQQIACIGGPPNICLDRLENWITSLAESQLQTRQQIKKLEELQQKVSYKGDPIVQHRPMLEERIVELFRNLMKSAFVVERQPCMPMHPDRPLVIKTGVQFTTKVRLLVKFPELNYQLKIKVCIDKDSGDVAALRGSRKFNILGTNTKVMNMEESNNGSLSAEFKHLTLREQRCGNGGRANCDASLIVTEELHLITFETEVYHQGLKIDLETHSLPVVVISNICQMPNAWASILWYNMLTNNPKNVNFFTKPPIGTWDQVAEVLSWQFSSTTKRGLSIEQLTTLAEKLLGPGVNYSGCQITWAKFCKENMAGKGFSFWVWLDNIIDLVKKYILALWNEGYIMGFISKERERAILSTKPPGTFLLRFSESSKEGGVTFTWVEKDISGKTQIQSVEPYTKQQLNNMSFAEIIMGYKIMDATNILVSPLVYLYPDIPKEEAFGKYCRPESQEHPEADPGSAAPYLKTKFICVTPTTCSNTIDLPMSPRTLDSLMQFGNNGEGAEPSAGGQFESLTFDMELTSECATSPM
Chain of Paired box protein Pax-8 (Q06710 whole entry): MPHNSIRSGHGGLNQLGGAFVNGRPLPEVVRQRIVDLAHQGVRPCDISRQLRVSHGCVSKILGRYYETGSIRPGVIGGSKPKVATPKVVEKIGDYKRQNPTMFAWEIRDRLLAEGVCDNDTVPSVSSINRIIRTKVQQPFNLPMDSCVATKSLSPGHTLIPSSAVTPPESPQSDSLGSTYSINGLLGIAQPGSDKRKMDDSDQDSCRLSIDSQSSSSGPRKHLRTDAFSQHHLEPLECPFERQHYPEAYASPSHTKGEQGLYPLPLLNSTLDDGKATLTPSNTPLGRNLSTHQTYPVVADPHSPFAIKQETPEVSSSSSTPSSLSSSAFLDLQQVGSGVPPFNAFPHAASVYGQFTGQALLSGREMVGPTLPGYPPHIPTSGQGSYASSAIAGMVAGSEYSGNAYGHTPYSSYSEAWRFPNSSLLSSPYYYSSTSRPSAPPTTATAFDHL
Chain of Nucleotide-binding oligomerization domain-containing protein 2 (Q9HC29 whole entry, the tested form may be a part): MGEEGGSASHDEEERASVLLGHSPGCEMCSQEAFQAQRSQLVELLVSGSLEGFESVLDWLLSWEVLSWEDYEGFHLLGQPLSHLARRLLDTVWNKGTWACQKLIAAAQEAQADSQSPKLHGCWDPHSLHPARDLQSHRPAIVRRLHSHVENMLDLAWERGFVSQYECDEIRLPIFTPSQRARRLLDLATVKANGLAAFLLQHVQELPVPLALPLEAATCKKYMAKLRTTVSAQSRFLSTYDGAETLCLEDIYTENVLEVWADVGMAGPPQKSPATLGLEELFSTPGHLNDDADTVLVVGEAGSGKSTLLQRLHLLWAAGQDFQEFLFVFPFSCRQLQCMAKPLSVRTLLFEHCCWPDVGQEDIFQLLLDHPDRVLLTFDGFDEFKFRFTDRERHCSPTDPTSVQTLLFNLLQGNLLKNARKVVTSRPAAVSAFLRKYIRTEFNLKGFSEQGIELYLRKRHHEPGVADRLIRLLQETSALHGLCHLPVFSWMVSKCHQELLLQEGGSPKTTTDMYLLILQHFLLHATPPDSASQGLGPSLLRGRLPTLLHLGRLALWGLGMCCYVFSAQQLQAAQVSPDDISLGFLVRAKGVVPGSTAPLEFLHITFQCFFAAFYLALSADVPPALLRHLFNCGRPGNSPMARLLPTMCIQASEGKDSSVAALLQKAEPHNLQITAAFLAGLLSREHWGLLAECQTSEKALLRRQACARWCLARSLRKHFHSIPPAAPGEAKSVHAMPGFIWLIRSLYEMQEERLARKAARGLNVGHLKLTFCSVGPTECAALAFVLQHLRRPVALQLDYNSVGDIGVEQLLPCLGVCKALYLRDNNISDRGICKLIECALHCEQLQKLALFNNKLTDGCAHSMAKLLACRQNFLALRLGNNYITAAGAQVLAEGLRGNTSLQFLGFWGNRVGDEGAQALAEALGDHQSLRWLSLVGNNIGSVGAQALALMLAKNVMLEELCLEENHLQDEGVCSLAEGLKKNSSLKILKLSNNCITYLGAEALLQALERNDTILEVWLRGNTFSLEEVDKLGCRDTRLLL
Chain of Tumor necrosis factor (P01375 whole entry): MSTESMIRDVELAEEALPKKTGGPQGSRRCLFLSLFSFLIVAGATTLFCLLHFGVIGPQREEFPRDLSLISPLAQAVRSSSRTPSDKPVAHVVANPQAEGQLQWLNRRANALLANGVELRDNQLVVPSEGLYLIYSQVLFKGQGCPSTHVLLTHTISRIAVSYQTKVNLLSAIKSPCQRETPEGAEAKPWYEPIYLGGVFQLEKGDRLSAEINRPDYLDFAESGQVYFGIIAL

SMILES: Cc1ccc(C(=O)N[C@@H](C)CN2C3=NC[C@@H](Cc4ccccc4)N3C[C@H]2Cc2ccc(O)cc2)cc1Br
- EC50 [1]: > 31.5 µM (inactive)
- AC50 [2]: 24.8 µM (active)
- EC50 [3]: 31.2 µM (inactive)
- EC50 [4]: > 32 µM (inactive)
- IC50 [5]: 3.16 µM (active)
- IC50 [6]: > 20 µM (inactive)
- IC50 [7]: 1440 nM
- IC50 [8]: > 32 µM (inactive)

SMILES: CC(C)(C)c1ccc(OCCC(=O)NCCc2ccc(S(N)(=O)=O)cc2)cc1
- IC50 [9]: 929 nM (active)
- IC50 [10]: > 32 µM (inactive)
- IC50 [11]: 9.95 µM (active)

SMILES: COc1ccc(N2CCN(CCOc3ccc4c(C)cc(=O)oc4c3)CC2)cc1
- IC50 [12]: > 79.4 µM (inactive)
- IC50 [13]: > 79.4 µM (inactive)
- IC50 [14]: > 79.4 µM (inactive)

SMILES: O=C(NN=C1CCCCCCCCCCC1)c1cccc(S(=O)(=O)N2CCOCC2)c1
- AC50 [15]: 18.1 µM (active)

SMILES: COc1ccc(C(=O)NC(=S)N(C)C2CCCCC2)cc1Br
- EC50 [16]: 12.4 µM (active)
- IC50 [17]: 6.75 µM (inactive)
- EC50 [18]: > 20 µM (inactive)
- IC50 [19]: > 20 µM (inactive)
- IC50 [20]: > 20 µM (inactive)
- IC50 [21]: > 20 µM (inactive)
- IC50 [22]: > 20 µM (inactive)
- IC50 [23]: > 20 µM (inactive)
- EC50 [24]: 3.6 µM (active)
- IC50 [25]: > 20 µM (inactive)

SMILES: O=C(c1ccccc1)C1CCN(c2ncnc3sccc23)CC1
- IC50 [26]: 5.71 µM (active)
- IC50 [27]: 688 nM (active)
- IC50 [28]: > 55.7 µM (inactive)

SMILES: COC(=O)c1ccc(CSc2nnc(-c3ccccn3)n2Cc2cccs2)cc1
- EC50 [29]: 5.99 µM (active)
- EC50 [30]: > 32 µM (inactive)
- EC50 [31]: 6.14 µM (active)
- EC50 [32]: > 32 µM (inactive)

SMILES: CSc1nc2cc(Cl)c(Oc3cccc(Cl)c3Cl)cc2[nH]1 [TRICLABENDAZOLE]
- AC50 [33]: 4.25 µM (active)
- EC50 [34]: 2.26 µM (active)
- EC50 [35]: 4.69 µM (active)
- IC50 [36]: > 125 µM (active)
- EC50 [37]: 6.22 µM (active)
